From patent publication US10512626B2, “Compositions for use in treating glioblastoma” (PELOTON THERAPEUTICS, INC., priority 2015, dated 2019)

Target: T1, HIF-2α HIS TAG-PASB Domain (Homo sapiens, UniProt Q99814)
T1 construct: 100 nM HIF-2α HIS TAG-PASB Domain
Experiment: HIF-2α Scintillation Proximity Assay (SPA)
Type: binding
Conditions: displacement of tritiated probe Compound 183
Procedure: The total assay volume was about 100 μL in the following configuration: 2 μL compound in 100% DMSO, 88 μL buffer with protein and probe and 10 μL of SPA beads. […] The percent inhibition was determined and IC50 values were calculated using the Dotmatics system based on the following equation: % inhibition=[(high control−sample)/(high control−low control)]×100.

T1 sequence (Q99814 240-350 limits assumed): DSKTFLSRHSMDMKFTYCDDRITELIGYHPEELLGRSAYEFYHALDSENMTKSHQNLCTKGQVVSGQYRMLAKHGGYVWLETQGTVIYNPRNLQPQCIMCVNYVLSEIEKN

Row | IC50 [nM] | Compound
1 | > 1000 | CS(=O)(=O)c1ccc(Nc2cc(F)cc(C#N)c2)c2c1[C@H](O)C(F)(F)C2 [Compound 502]
2 | 250 to 1000 | O=S(=O)(c1ccc(O[C@H]2C[C@H](O)C2)c2c1[C@H](O)C(F)(F)C2)C(F)(F)F [Compound 644]
3 | 50 to 249 | FC(F)COc1ccc(C(F)(F)F)c2c1C[C@H](F)[C@H]2F [Compound 697]
4 | < 50 | CS(=O)(=O)c1ccc(O[C@H]2C[C@H](C#N)C2)c2c1[C@H](O)C(F)(F)[C@@H]2F [Compound 760]

Tested on: VEGF concentration in culture medium of 786-O cells
Experiment: VEGF ELISA Assay
Type: cell-based
Conditions: Homo sapiens, 786-0
Procedure: Each concentration was plated in duplicate. About 20 hours later, medium was removed by suction and each well was supplied with 180 μL of growth medium. About 20 µl freshly-made 10× compound stocks were added to each well. […] The EC50 was calculated by GraphPad Prism using the dose-response-inhibition (four parameter) equation. The cell-seeded plate was then subjected to CellTiter-Glo luminescence cell viability assay (Promega) by adding 50 μL of Celltiter Glo reagent into each well and shaking the plate for 8 minutes at 550 rpm (Thermomixer R, Eppendorf) then the luminescence signal immediately read in a plate reader (3 second delay, 0.5 second/well integration time, Synergy 2 multi Detection Microplate reader).

Row | EC50 [nM] | Compound
5 | 250 to 1000 | O=S(=O)(c1ccc(Oc2cc(F)cc(Cl)c2)c2c1[C@H](O)CC2)C(F)F [Compound 1]
6 | 50 to 249 | O=S(=O)(c1ccc(Oc2cc(F)cc(Cl)c2)c2c1C(O)CC2)C(F)F (stereo not shown) [Compound 17]
7 | 250 to 1000 | O=S(=O)(c1ccc(Oc2cc(F)cc(Cl)c2)c(Cl)c1CO)C(F)F [Compound 41]
8 | 50 to 249 | N#Cc1ccc(Oc2cc(F)cc(F)c2)c2c1[C@H](O)C(F)(F)C2 [Compound 67]
9 | 250 to 1000 | N#Cc1cc(F)cc(Oc2ccc(S(=O)(=O)C(F)F)c3c2CCC3O)c1 (stereo not shown) [Compound 78]
10 | 50 to 249 | CS(=O)(=O)c1ccc(Oc2cc(Cl)cc(C#N)c2)c2c1[C@H](O)C(F)(F)C2 [Compound 234]
11 | 50 to 249 | CS(=O)(=O)c1ccc(OC2CC(C#N)C2)c2c1[C@H](O)C(F)(F)[C@@H]2F (stereo partly shown) [Compound 760]

Row | Compound | EC50 [nM]
12 | O=S(=O)(c1ccc(Oc2cc(F)cc(Cl)c2)c(C(F)F)c1)C(F)(F)F [Compound 124] | 250 to 1000
13 | N#Cc1cc(F)cc(Oc2ccc(S(=O)(=O)C(F)F)c3c2CC[C@H]3O)c1 [Compound 155] | 50 to 249

Tested on: 786-O-Hif-Luc cells (luciferase gene driven by multiple HIF responsive elements)
Experiment: Luciferase Assay (HIF reporter)
Conditions: 24 h, read-out: Mean Luciferase EC50 (nM)
Procedure: A pool of infected cells were then selected against 2 μg/mL of puromycin (P8833, Sigma) for 10 days followed by limited dilution to select single clones.
Each concentration was tested in triplicate. After about 24 hours, luciferase activity was determined using ONE-Glo Luciferase Assay Reagent (E6110, Promega) following the manufacturer's recommended procedure. EC50 were calculated using Dotmatics software.

Row | EC50 [nM] | Compound
14 | 250 to 1000 | C[C@H]1C[C@@H](O)c2c(S(=O)(=O)C(F)F)ccc(Oc3cc(F)cc(Cl)c3)c21 [Compound 7a]
15 | 250 to 1000 | O=S(=O)(c1ccc(Oc2cc(F)cc(Cl)c2)c(Cl)c1CO)C(F)F [Compound 41]
16 | 50 to 249 | N#Cc1cc(F)cc(Oc2ccc(S(=O)(=O)C(F)(F)F)c3c2CC[C@H]3O)c1 [Compound 57]
17 | 250 to 1000 | N#Cc1cccc(Oc2ccc(S(=O)(=O)C(F)F)c3c2CC[C@H]3O)c1 [Compound 156]
18 | < 50 | CS(=O)(=O)c1ccc(Oc2cc(F)cc(C#N)c2)c2c1[C@H](O)C(F)(F)C2 [Compound 163, (S)-3-((2,2-Difluoro-1-hydroxy-7-(methylsulfonyl)-2,3-dihydro-1H-inden-4-yl)oxy)-5-fluorobenzonitrile]
19 | 50 to 249 | CS(=O)(=O)c1ccc(Oc2cc(F)cc(C#N)c2)c2c1[C@H](N)C(F)(F)C2 [Compound 165]
20 | < 50 | N#Cc1cc(Cl)cc(Oc2ccc(S(=O)(=O)CF)c3c2CC(F)(F)[C@H]3O)c1 [Compound 167]
21 | 50 to 249 | CCS(=O)(=O)c1ccc(Oc2cc(F)cc(C#N)c2)c2c1[C@H](O)C(F)(F)C2 [Compound 206]
22 | 50 to 249 | CS(=O)(=O)c1ccc(Oc2cc(F)cc(C#N)c2)c2c1C(O)C(F)(F)C2 (stereo not shown) [Compound 223]
23 | > 1000 | CS(=O)(=O)c1ccc(Oc2cc(F)cc(C#N)c2)c2c1[C@@H](O)C(F)(F)C2 [Compound 226]
24 | < 50 | [2H]C([2H])([2H])S(=O)(=O)c1ccc(Oc2cc(F)cc(C#N)c2)c2c1[C@]([2H])(O)C(F)(F)C2 [Compound 229]
25 | < 50 | CS(=O)(=O)c1ccc(Oc2cc(F)cc(C#N)c2)c2c1[C@H](O)[C@H](F)C2 [Compound 231]
26 | < 50 | CS(=O)(=O)c1ccc(Oc2cc(F)cc(C#N)c2)c2c1C(O)C(F)C2 (stereo not shown) [Compound 232]
27 | < 50 | CS(=O)(=O)c1ccc(Oc2cc(Cl)cc(C#N)c2)c2c1[C@H](O)C(F)(F)C2 [Compound 234]
28 | < 50 | N#Cc1cncc(Oc2ccc(S(=O)(=O)C(F)(F)F)c3c2CC(F)(F)[C@H]3O)c1 [Compound 235]
29 | < 50 | [2H][C@]1(O)c2c(S(C)(=O)=O)ccc(Oc3cc(F)cc(C#N)c3)c2CC1(F)F [Compound 247]
30 | 50 to 249 | CNS(=O)(=O)c1ccc(Oc2cc(F)cc(F)c2)c2c1[C@H](O)C(F)(F)C2 [Compound 251]
31 | 50 to 249 | N#Cc1cc(F)cc(Oc2ccc(S(N)(=O)=O)c3c2CC(F)(F)[C@H]3O)c1 [Compound 252]
32 | 50 to 249 | CNS(=O)(=O)c1ccc(Oc2cc(F)cc(C#N)c2)c2c1[C@H](O)C(F)(F)C2 [Compound 254]
33 | < 50 | NS(=O)(=O)c1ccc(Oc2cc(F)cc(F)c2)c2c1[C@H](O)C(F)(F)C2 [Compound 256]
34 | 250 to 1000 | CS(=O)(=O)c1ccc(Oc2cc(F)cc(C#N)c2)c2c1[C@H](O)[C@@H](F)C2 [Compound 271]
35 | 50 to 249 | N#Cc1cc(F)cc(Oc2ccc(S(=O)(=O)C(F)(F)F)c3c2CC(F)(F)[C@H]3N)c1 [Compound 290]
36 | < 50 | N#Cc1cc(F)cc(Oc2ccc(S(N)(=O)=O)c3c2[C@@H](F)C(F)(F)[C@H]3O)c1 [Compound 338]
37 | 250 to 1000 | N#Cc1cc(F)cc(Oc2ccc(S(N)(=O)=O)c3c2[C@H](F)C(F)(F)[C@H]3O)c1 [Compound 339]

Row | Compound | EC50 [nM]
38 | O=S(=O)(c1ccc(Oc2cc(F)cc(Cl)c2)c(C(F)F)c1)C(F)(F)F [Compound 124] | 250 to 1000
39 | N#Cc1cc(F)cc(Oc2ccc(S(=O)(=O)C(F)F)c3c2CC[C@H]3O)c1 [Compound 155] | 50 to 249
40 | CS(=O)(=O)c1ccc(Oc2cc(F)cc(C#N)c2)c2c1[C@H](O)[C@H](F)[C@@H]2F [Compound 289, 3-[(1S,2S,3R)-2,3-difluoro-1-hydroxy-7-methylsulfonyl-indan-4-yl]oxy-5-fluoro-benzonitrile] | < 50

Same assay, conditions: 24 h, read-out: Mean Luciferase EC50 (nM), 786-O-Hif-Luc cells, about 24 hours

Row | EC50 [nM] | Compound
41 | 250 to 1000 | O=S(=O)(c1ccc(O[C@H]2C[C@H](O)C2)c2c1[C@H](O)C(F)(F)C2)C(F)(F)F [Compound 644]
42 | 50 to 249 | FC(F)COc1ccc(C(F)(F)F)c2c1C[C@H](F)[C@H]2F [Compound 697]
43 | 50 to 249 | CS(=O)(=O)c1ccc(OC2CC(C#N)C2)c2c1[C@H](O)C(F)(F)[C@@H]2F (stereo partly shown) [Compound 760]
